Data: article PMC11402040 (ESMO Open, 2024)

Key:
[1] = cited from earlier work; for LFT elevations in the clinic: dose levels evaluated in the clinic
CYP3A = assay: phase I Part 1B PK, CYP3A-mediated drug–drug interaction with enzalutamide; format: in vivo, human; conditions: coadministered enzalutamide 160 mg q.d.

Compound | bleeding in clinical studies [1] | LFT elevations in the clinic [1] | also measured
fresolimumab: other TGF-β inhibitor in clinical studies | Bleeding (including intratumoral bleeding) has been observed | – | –
Cc1cccc(-c2nn3c(c2-c2ccnc4ccc(C(N)=O)cc24)CCC3)n1 [galunisertib] | – | not demonstrated severe LFT elevations | –
bintrafusp alfa: bifunctional fusion protein targeting TGF-β and PD-L1 | Bleeding (including intratumoral bleeding) has been observed | – | –
CNC(=O)c1ccc(N2C(=S)N(c3ccc(C#N)c(C(F)(F)F)c3)C(=O)C2(C)C)cc1F [enzalutamide] | – | – | CYP3A4 enzyme induction effect on PF-06952229 (CYP3A): strong cytochrome P450 3A4 (CYP3A4) enzyme induction effect
CC(C)(O)c1cc(Nc2cc(Oc3cn(C4CC4)nc3C3CCOCC3)ccn2)ccn1 [LY3200882] | – | not demonstrated severe LFT elevations | –
